What was measured:
human Kv1.3 = human Kv1.3 (Homo sapiens, UniProt P22001); test: IonWorks automated patch clamp assay of inhibitory activity against Kv1.3; format: cell-based; settings: automated patch clamp method; CHO-K1 cells stably expressing human Kv1.3
Procedure, shortened: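 CHO-K1 cells stably expressing human Kv1.3, perforated-patch IonWorks Quattro (amphotericin B 200 μg/mL internal), external solution pH 7.3. Compounds 0.00384-30 μM final, 0.3% DMSO, 600 s incubation; four 1 s pulses to 0 mV from −80 mV. Inhibition from peak current ratio after/before compound.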

[1] = test system: rat model of allergic contact dermatitis (ACD); test: Rat model of allergic contact dermatitis (ACD model) induced by DNCB; format: in vivo; settings: SD female rats, 5%, 1.5%, 0.5% applied to right ear by wiping three times a day, 4 days, FIG. 1
Protocol: IV. Effects of Compound 37 on a Rat Model of Allergic Contact Dermatitis (ACD Model) 1. Laboratory Animal
SPF SD female rats with body weight of 130-150 g were used.
Dexamethasone (DXMS) sodium phosphate injection, 5 mg/ml/injection (Shiyao Yinhu Pharmaceutical Co., Ltd.); 1-chloro-2,4-dinitrobenzene (DNCB) (TCI Shanghai); vehicle and negative control: acetone/DMSO 9:1 (Vehicle, Model group).
3.1 The animals were randomly divided into 6 groups based on body weight with 10 animals per group: blank control group, model control group, positive control group (dexamethasone sodium phosphate injection 5 mg/mL), 5% Compound 37 group, 1.5% Compound 37 group and 0.5% Compound 37 group.
3.2 Modeling and administration: a rat model of allergic contact dermatitis (ACD) was established by sensitizing and stimulating the rat's skin with a DNCB solution in acetone and DMSO (acetone-DMSO 9:1). The rats were normally fed in a SPF barrier system for 1 week. Long hair was removed with a razor and short hair was removed with depilatory cream within an area of about 2 cm×2 cm from abdomen of the rats one day before the experiment. […]
3.3 Measurement of difference between ear thicknesses: before the stimulation and after the final administration, the thickness of central parts of left and right ears of the rats in each of the groups was measured with electronic digital calipers. […]

Chain of human Kv1.3 (P22001 whole entry): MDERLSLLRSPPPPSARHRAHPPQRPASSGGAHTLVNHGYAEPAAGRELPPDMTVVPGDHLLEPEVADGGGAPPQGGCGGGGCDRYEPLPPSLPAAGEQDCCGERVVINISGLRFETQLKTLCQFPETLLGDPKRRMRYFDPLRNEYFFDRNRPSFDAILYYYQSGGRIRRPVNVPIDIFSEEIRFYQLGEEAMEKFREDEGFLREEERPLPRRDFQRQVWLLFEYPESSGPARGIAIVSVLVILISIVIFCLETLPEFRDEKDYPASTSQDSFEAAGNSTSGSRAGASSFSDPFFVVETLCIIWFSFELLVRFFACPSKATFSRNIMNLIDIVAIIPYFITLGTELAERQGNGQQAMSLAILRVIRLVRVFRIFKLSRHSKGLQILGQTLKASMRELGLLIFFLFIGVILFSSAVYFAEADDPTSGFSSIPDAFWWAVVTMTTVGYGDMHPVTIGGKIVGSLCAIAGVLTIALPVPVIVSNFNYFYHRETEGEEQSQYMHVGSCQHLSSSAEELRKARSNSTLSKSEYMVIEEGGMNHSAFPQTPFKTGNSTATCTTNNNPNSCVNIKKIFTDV

IC50 (human Kv1.3): 92 nM
SMILES: CC(C)CS(=O)(=O)N(Cc1ccc(F)cc1)c1ccc(N2CCN(C(=O)N(C)C)CC2)c(C#N)c1 [Compound 37, 4-(2-cyano-4-((N-(4-fluorobenzyl)-2-methylpropyl)sulfonamido)phenyl)-N,N-dimethylpiperazin-1-formamide]
ear inflammation (difference between ear thicknesses) [1]: significantly reduced ear inflammation

Reference: patent US11993576B2, “N-benzyl-N-arylsulfonamide derivative and preparation and use thereof” (Hangzhou Yirui Pharmaceutical Technology Co., Ltd, priority 2019, dated 2024)
